The NIST ThermoML archive (doi:10.1021/je060210c)

Columns and labels:
[1] = xn = mol fraction of the nth substance listed; conditions: 101 kPa, Liquid; for speed of sound: Sing-around technique in a fixed-path interferometer
[2] = excess molar enthalpy (molar enthalpy of mixing); xn = mol fraction of the nth substance listed; conditions: 101 kPa, Liquid

C=C1CCC2CC1C2(C)C (stereo not drawn) [β-pinene] + CCCC(C)O
Conditions | excess molar enthalpy [kcal/mol] | mass density [kg/m3] | speed of sound [m/s]
[1], 283.15 K, x1 = 0.104 | – | 824.99 | 1291.4
[1], 283.15 K, x1 = 0.2047 | – | 832.2 | 1295.3
[1], 283.15 K, x1 = 0.3071 | – | 839.03 | 1299.3
[1], 283.15 K, x1 = 0.3997 | – | 844.95 | 1303.5
[1], 283.15 K, x1 = 0.4964 | – | 850.86 | 1308.8
[1], 283.15 K, x1 = 0.6058 | – | 857.28 | 1316.2
[1], 283.15 K, x1 = 0.6929 | – | 862.26 | 1323.1
[1], 283.15 K, x1 = 0.8016 | – | 868.23 | 1332.7
[1], 283.15 K, x1 = 0.904 | – | 873.67 | 1342.4
[1], 283.15 K, x1 = 0.9454 | – | 875.83 | 1346.8
[1], 298.15 K, x1 = 0.1056 | – | 812.89 | 1235
[1], 298.15 K, x1 = 0.2051 | – | 819.88 | 1238.6
[1], 298.15 K, x1 = 0.3052 | – | 826.49 | 1241.5
[1], 298.15 K, x1 = 0.4038 | – | 832.72 | 1245.8
[1], 298.15 K, x1 = 0.5068 | – | 838.99 | 1251.5
[1], 298.15 K, x1 = 0.601 | – | 844.56 | 1257.8
[1], 298.15 K, x1 = 0.695 | – | 849.94 | 1265
[1], 298.15 K, x1 = 0.8014 | – | 855.84 | 1273.7
[1], 298.15 K, x1 = 0.9001 | – | 861.15 | 1282.7
[1], 298.15 K, x1 = 0.9499 | – | 863.9 | 1288.2
[1], 313.15 K, x1 = 0.1069 | – | 800.02 | 1170.1
[1], 313.15 K, x1 = 0.1981 | – | 806.39 | 1173.2
[1], 313.15 K, x1 = 0.3039 | – | 813.43 | 1177.7
[1], 313.15 K, x1 = 0.4034 | – | 819.78 | 1182.2
[1], 313.15 K, x1 = 0.5067 | – | 826.14 | 1188.2
[1], 313.15 K, x1 = 0.6023 | – | 831.84 | 1195.1
[1], 313.15 K, x1 = 0.7005 | – | 837.55 | 1203.4
[1], 313.15 K, x1 = 0.7975 | – | 843.07 | 1212.8
[1], 313.15 K, x1 = 0.8956 | – | – | 1223.2
[1], 313.15 K, x1 = 0.8957 | – | 848.53 | –
[1], 313.15 K, x1 = 0.9497 | – | 851.6 | 1229.6
[2], 283.15 K, x1 = 0.049 | 0.0299 | – | –
[2], 283.15 K, x1 = 0.1 | 0.0631 | – | –
[2], 283.15 K, x1 = 0.193 | 0.117 | – | –
[2], 283.15 K, x1 = 0.294 | 0.163 | – | –
[2], 283.15 K, x1 = 0.395 | 0.194 | – | –
[2], 283.15 K, x1 = 0.495 | 0.21 | – | –
[2], 283.15 K, x1 = 0.591 | 0.21 | – | –
[2], 283.15 K, x1 = 0.695 | 0.194 | – | –
[2], 283.15 K, x1 = 0.794 | 0.168 | – | –
[2], 283.15 K, x1 = 0.9 | 0.123 | – | –
[2], 283.15 K, x1 = 0.942 | 0.092 | – | –
[2], 283.15 K, x1 = 0.971 | 0.066 | – | –
[2], 283.15 K, x1 = 0.985 | 0.0356 | – | –
[2], 298.15 K, x1 = 0.049 | 0.0382 | – | –
[2], 298.15 K, x1 = 0.1 | 0.0803 | – | –
[2], 298.15 K, x1 = 0.193 | 0.149 | – | –
[2], 298.15 K, x1 = 0.294 | 0.206 | – | –
[2], 298.15 K, x1 = 0.395 | 0.243 | – | –
[2], 298.15 K, x1 = 0.495 | 0.263 | – | –
[2], 298.15 K, x1 = 0.591 | 0.263 | – | –
[2], 298.15 K, x1 = 0.695 | 0.253 | – | –
[2], 298.15 K, x1 = 0.794 | 0.224 | – | –
[2], 298.15 K, x1 = 0.9 | 0.172 | – | –
[2], 298.15 K, x1 = 0.942 | 0.124 | – | –
[2], 298.15 K, x1 = 0.971 | 0.0875 | – | –
[2], 298.15 K, x1 = 0.985 | 0.0452 | – | –
[2], 313.15 K, x1 = 0.049 | 0.05 | – | –
[2], 313.15 K, x1 = 0.1 | 0.0987 | – | –
[2], 313.15 K, x1 = 0.193 | 0.179 | – | –
[2], 313.15 K, x1 = 0.294 | 0.245 | – | –
[2], 313.15 K, x1 = 0.395 | 0.289 | – | –
[2], 313.15 K, x1 = 0.495 | 0.315 | – | –
[2], 313.15 K, x1 = 0.591 | 0.321 | – | –
[2], 313.15 K, x1 = 0.695 | 0.313 | – | –
[2], 313.15 K, x1 = 0.794 | 0.286 | – | –
[2], 313.15 K, x1 = 0.9 | 0.21 | – | –
[2], 313.15 K, x1 = 0.942 | 0.153 | – | –
[2], 313.15 K, x1 = 0.971 | 0.0968 | – | –
[2], 313.15 K, x1 = 0.985 | 0.0442 | – | –
